{"source": "patent US20040152722A1", "about": "(priority 2001, published 2004)", "key": {"[1]": {"tested_on": "Rigidity Model of Mouse Induced By Haloperidol", "conditions": "in vivo, po"}, "[2]": {"tested_on": "Tremor Model of Mice Induced by Agonist of Cholinergic M-Receptor: Arecaline", "conditions": "mouse, in vivo, po"}}, "data": [{"smiles": "OC(CCN1CCCCC1)(c1ccccc1)C1CCCCC1", "note": "(centres unmarked) [Benzhexol]", "values": [{"measurement": "ED50 + L95", "setting": "[1]", "value": "19.56 ± 1.44", "unit": "mg/kg"}, {"measurement": "ED50 + L95", "setting": "[2]", "value": "8.82 ± 0.83", "unit": "mg/kg"}]}]}
